Experimental data reported in patent EP0831877B1, “METABOLIC EFFECTS OF CERTAIN GLUTATHIONE ANALOGS” (TELIK, INC., priority 1995, dated 1996).
Where “and” joins values, the source holds several entries; their conditions need not be identical. Equal entries are not always repeated. *1 amine or outer side, *2 acyl side, *3 side chain or, on linkers, in order; H or OH if unused. Where a SMILES comes first, the peptide text is derived from it. [ ]: non-standard residue; d: D form. The star is where a group is joined. γGlu = O=C(O)[C@H](CCC(=O)[*:2])N[*:1]; dPhg = N[C@@H](C(=O)O)c1ccccc1; Bn = c1ccc(C*)cc1

Key:
[1] = system: HT-29 (human colon adenocarcinoma) cells; test: modified clonogenic assay, potentiation of chlorambucil cytotoxicity; assay type: cell-based
Experimental: HT-29 (human colon adenocarcinoma) cells were obtained from Dr. Roberto Ceriani (Cancer Research Fund of Contra Costa County, Walnut Creek, CA) and were used in log phase of growth unless otherwise specified. Chlorambucil (CMB) was obtained from Sigma (St. Louis, MO) and was dissolved in 100% ethanol. All GST inhibitors were dissolved in ethanol, DMSO, or water just prior to use. The same amount of solvent added to culture medium served as the vehicle control.
In a modified clonogenic assay for cytotoxicity, cells were suspended at 2 x 10^5 cells/ml in serum-free medium in the presence of vehicle or inhibitor. […] Cells were incubated for 2 hours, then varying doses of CMB were added. At the end of a second 2-hour incubation, cells were diluted to 7.5-10 x 10^3/ml in serum-containing medium and plated in quadruplicate at 200 µl/well in Microtest III microtiter plates.
Plates were incubated for 6 days and assayed by a modified methylene blue method. Briefly, cells were fixed with 1.25% glutaraldehyde in PBS then stained with 0.05% methylene blue in distilled water. Plates were washed several times in distilled water to remove unretained dye and retained dye was resolubilized in 0.03 N HCl. Plates were read at 650 nm in a Molecular Devices Vmax plate reader (Molecular Devices, Redwood City, CA). […] A dose modification factor (DMF), a measure of potentiation of cytotoxicity, was calculated for each inhibitor by dividing the IC50 value of CMB without inhibitor treatment by the IC50 value for CMB with inhibitor treatment.

[2] = in vitro half-life / metabolism in mouse blood; assay type: in vitro ADME
[3] = in vitro half-life in human blood; assay type: in vitro ADME
bone marrow GM-CFU [4] = details: melphalan 10 mg/kg i.p. alone
HT4-1 tumors = test: potentiation of melphalan toxicity in vivo, implanted HT4-1 tumors; parameters: species or system Male scid mice; details: group 1: 5 mg/kg melphalan alone, seven days; when control tumors reached 1500 mm^3
Experimental: Male scid mice were subcutaneously implanted with HT4-1 tumors from donor mice. HT4-1 is a subclone of HT-29, a human colon cancer. When tumors reached approximately 100 mm^3, the mice were randomized into six treatment groups and treated for seven days as follows: • 1. 5 mg/kg melphalan; • 2. 10 mg/kg ethacrynic acid; • 3. […] 5 mg/kg melphalan + 10 mg/kg ethacrynic acid; • 5.
The mice were monitored for weight changes and tumor volumes were determined by measurement with calipers. The tumor growth was monitored until the average tumor size reached 1500 mm^3 for all groups except melphalan with ethacrynic acid.
The results were computed in terms of the tumor volume in the drug treated mice as a percentage of control tumor volume (i.e., in the group administered vehicle alone). In group 1, administered melphalan alone, the tumors were approximately 75% of the volume of controls. […] For group 4 administered a combination of melphalan and ethacrynic acid, the volumes were approximately 35% of control. […] (The volume measurements were taken at the time control tumors reached 1500 mm^3.)

GST M2-2 = target: T1, GST M2-2 (Homo sapiens, UniProt P28161); test: inhibition of GST isoenzyme M2-2 (Ki); assay type: biochemical; details: determined on unesterified form
T1 sequence (P28161 1-218): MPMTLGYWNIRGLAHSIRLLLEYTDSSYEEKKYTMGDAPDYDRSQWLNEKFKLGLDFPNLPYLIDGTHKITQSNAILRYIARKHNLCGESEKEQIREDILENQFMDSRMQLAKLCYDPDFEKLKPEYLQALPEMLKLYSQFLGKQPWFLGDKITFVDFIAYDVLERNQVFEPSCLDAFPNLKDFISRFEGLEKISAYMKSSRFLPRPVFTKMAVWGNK

GST A1-1 = target: T2, GST A1-1 (Homo sapiens, UniProt P08263); test: inhibition of GST isoenzyme A1-1 (Ki); assay type: biochemical; details: determined on unesterified form
T2 sequence (P08263 1-222): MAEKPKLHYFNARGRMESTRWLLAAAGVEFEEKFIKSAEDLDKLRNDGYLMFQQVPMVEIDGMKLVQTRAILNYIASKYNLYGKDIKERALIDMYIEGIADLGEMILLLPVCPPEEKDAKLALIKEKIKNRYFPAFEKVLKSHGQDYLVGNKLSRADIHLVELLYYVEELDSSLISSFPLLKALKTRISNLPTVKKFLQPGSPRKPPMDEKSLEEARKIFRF

bone marrow GM-CFU [5] = test: stimulation of bone marrow GM-CFU after administration to mice; assay type: in vivo, B6D2F1 mice; details: bone marrow harvested 24 hours after administering
Experimental: In an illustrative assay three B6D2F1 mice were treated with various doses of benzyl PG intraperitoneally.
Mice in the control group were injected with water or saline. Bone marrow cells were harvested 24 hours after drug treatment and added to alpha minimum essential medium (alpha MEM) supplemented with methylcellulose (0.8% w/v), fetal bovine serum (20% v/v), deionized BSA (1% w/v), Pokeweed mitogen-stimulated spleen-cell conditioned medium (PWM-SCCM)^1 (10% v/v) and gentamycin (50 Tg/ml). One ml aliquots were plated (four replicate plates) and incubated for seven days at 37 °C. […] Spleens were removed aseptically from four male B6D2F1 mice enforced through a 200 Tm wire mesh screen to obtain a single cell suspension. Ten ml of the suspension (2-4 X 10^7 cell/ml was added to 90 ml alpha-MEM supplemented with 1% deionized BSA, 50 Tg/ml gentamicin, 0.3% freshly reconstituted pokeweed antigen, 10 µM 2-mercaptoethanol. The mixture was incubated for 5 days at […] in a 5% CO2 atmosphere and the result-ing conditioned medium was centrifuged at 800g for ten minutes and filtered through a 0.22 Tm filter. Aliquots were kept frozen at […] until use.
Bone marrow was harvested 24 hours after administering the compounds and GM-CFU levels measured as described above.

GST M1a-1a = target: T3, GST M1a-1a (Homo sapiens, UniProt P09488); test: inhibition of GST isoenzyme M1a-1a (Ki); assay type: biochemical; details: determined on unesterified form
T3 sequence (P09488 1-218): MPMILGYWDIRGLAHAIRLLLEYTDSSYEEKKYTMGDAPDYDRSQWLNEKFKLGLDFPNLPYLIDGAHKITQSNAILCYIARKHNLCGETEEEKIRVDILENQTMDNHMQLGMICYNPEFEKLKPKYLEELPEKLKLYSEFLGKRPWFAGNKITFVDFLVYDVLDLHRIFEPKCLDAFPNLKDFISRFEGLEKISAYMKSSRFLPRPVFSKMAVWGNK

Human GST P1-1 = Human GST P1-1 (Homo sapiens, UniProt P09211); test: inhibition of GST isoenzyme P1-1 (Ki); assay type: biochemical; details: determined on unesterified form
[6] = system: HT4-1, a subclone of HT-29; test: standard clonogenic assay, potentiation of drug toxicity, HT4-1; details: HT4-1 cells
Experimental: Four chemotherapeutic drugs, chlorambucil, adriamycin, mitomycin C and doxorubicin were used as the toxic agents. In these assays, the cells were seeded at 300 cells/well in 2 ml of medium in 6-well plates in the presence of the compounds used in the invention as the diethyl esters. […] After incubation for 1-2 hours to permit cells to attach, varying doses of the chemotherapeutic agents were added. At least three replicate wells were plated for each test condition and the plates were incubated for two weeks. […] IC50 values were determined for the chemotherapeutic agent in the presence or absence of the compound used in the invention and dose modification factors were calculated by dividing the IC50 value of drug without the compound by the IC50 value of the drug with the compound.

Chain of Human GST P1-1 (P09211 2-210 limits assumed): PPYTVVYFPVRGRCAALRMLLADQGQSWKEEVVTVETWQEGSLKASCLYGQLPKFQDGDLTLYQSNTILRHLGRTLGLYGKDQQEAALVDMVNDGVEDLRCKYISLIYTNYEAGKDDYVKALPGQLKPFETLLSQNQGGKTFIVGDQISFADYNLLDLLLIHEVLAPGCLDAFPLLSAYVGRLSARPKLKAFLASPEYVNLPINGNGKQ

For `CCNC(=O)C(N)CCC(=O)NC(CSCc1ccccc1)C(=O)N[C@@H](C(=O)OCC)c1ccccc1` (stereo partly drawn) [TER300, γE ethyl amide-C(Bz)-R-(-)-ϕG ethyl ester], the “amount required to achieve equivalent potentiation of chlorambucil, relative to TER199” value [1] was “Four times as much”, the “DMF for chlorambucil toxicity” value ([1]; HT-29, 50 µM, mean ±SD of three experiments) was 1.45 ± 0.16 and the “half-life compared with TER199” value [2] was “longer half-lives than TER199”. For the same compound, the rate of metabolism [2] was “intermediate between that of TER199 and TER278”, the “half-life, comparison of the three compounds” value [3] was “approximately the same” and the rate of metabolism (HT-29 cell culture) was “intermediate between that of TER199 and TER278”.

With `N[C@@H](Cc1ccc(N(CCCl)CCCl)cc1)C(=O)O` [melphalan, reference compound] the GM-CFU remaining (bone marrow GM-CFU [4]) was 2% and the “tumor volume as a percentage of control tumor volume” value (HT4-1 tumors) was “approximately 75%”.

With `N[C@@H](CCC(=O)N[C@@H](CSCc1ccccc1)C(=O)N[C@@H](C(=O)O)c1ccccc1)C(=O)O` [TER117, γE-C(Bz)-ϕG] (γGlu-Cys(Bn)-[dPhg]-OH) the “DMF (dose modification factor), Parent Compound” value ([1]; chlorambucil, HT-29, dose tested 100 µM, mean ±S.D. of 2-3 experiments) was 1.08 and 1.08±0.01, the Ki (GST M2-2) was 31 µM and the Ki (GST A1-1) was 20 µM. For the same compound, the “effect on GM-CFU as a function of dosage, ester/amide forms (Figure 7)” value (bone marrow GM-CFU [5]) was “not effective”, the Ki (GST M1a-1a) was 25 µM and the Ki (Human GST P1-1) was 0.4 µM. For the same compound, the “survival of HT4-1 cells in the presence of the compound alone (Figure 1b)” value [6] was “substantially no effect”.
